According to ChEMBL document CHEMBL2434948, “Discovery, synthesis, and characterization of an orally bioavailable, brain penetrant inhibitor of mixed lineage kinase 3” (J Med Chem, 2013):
pIC50: −log10 of the molar value. Activity calls are given as the source filed them. The calls are words filed in the database; no cut-off is given here.

How the values were obtained:
[1] = biological target: Mitogen-activated protein kinase kinase kinase 11 (Homo sapiens, UniProt Q16584)
Description: Inhibition of MLK3 (unknown origin) after 20 mins by scintillation counting analysis in presence of [33P]-ATP

[2] = biological target: T1, Leucine-rich repeat serine/threonine-protein kinase 2 (Homo sapiens, UniProt Q5S007); assay: Inhibition of human wild type LRRK2 at 1 uM by qPCR analysis relative to control
T1 sequence (Q5S007 whole entry): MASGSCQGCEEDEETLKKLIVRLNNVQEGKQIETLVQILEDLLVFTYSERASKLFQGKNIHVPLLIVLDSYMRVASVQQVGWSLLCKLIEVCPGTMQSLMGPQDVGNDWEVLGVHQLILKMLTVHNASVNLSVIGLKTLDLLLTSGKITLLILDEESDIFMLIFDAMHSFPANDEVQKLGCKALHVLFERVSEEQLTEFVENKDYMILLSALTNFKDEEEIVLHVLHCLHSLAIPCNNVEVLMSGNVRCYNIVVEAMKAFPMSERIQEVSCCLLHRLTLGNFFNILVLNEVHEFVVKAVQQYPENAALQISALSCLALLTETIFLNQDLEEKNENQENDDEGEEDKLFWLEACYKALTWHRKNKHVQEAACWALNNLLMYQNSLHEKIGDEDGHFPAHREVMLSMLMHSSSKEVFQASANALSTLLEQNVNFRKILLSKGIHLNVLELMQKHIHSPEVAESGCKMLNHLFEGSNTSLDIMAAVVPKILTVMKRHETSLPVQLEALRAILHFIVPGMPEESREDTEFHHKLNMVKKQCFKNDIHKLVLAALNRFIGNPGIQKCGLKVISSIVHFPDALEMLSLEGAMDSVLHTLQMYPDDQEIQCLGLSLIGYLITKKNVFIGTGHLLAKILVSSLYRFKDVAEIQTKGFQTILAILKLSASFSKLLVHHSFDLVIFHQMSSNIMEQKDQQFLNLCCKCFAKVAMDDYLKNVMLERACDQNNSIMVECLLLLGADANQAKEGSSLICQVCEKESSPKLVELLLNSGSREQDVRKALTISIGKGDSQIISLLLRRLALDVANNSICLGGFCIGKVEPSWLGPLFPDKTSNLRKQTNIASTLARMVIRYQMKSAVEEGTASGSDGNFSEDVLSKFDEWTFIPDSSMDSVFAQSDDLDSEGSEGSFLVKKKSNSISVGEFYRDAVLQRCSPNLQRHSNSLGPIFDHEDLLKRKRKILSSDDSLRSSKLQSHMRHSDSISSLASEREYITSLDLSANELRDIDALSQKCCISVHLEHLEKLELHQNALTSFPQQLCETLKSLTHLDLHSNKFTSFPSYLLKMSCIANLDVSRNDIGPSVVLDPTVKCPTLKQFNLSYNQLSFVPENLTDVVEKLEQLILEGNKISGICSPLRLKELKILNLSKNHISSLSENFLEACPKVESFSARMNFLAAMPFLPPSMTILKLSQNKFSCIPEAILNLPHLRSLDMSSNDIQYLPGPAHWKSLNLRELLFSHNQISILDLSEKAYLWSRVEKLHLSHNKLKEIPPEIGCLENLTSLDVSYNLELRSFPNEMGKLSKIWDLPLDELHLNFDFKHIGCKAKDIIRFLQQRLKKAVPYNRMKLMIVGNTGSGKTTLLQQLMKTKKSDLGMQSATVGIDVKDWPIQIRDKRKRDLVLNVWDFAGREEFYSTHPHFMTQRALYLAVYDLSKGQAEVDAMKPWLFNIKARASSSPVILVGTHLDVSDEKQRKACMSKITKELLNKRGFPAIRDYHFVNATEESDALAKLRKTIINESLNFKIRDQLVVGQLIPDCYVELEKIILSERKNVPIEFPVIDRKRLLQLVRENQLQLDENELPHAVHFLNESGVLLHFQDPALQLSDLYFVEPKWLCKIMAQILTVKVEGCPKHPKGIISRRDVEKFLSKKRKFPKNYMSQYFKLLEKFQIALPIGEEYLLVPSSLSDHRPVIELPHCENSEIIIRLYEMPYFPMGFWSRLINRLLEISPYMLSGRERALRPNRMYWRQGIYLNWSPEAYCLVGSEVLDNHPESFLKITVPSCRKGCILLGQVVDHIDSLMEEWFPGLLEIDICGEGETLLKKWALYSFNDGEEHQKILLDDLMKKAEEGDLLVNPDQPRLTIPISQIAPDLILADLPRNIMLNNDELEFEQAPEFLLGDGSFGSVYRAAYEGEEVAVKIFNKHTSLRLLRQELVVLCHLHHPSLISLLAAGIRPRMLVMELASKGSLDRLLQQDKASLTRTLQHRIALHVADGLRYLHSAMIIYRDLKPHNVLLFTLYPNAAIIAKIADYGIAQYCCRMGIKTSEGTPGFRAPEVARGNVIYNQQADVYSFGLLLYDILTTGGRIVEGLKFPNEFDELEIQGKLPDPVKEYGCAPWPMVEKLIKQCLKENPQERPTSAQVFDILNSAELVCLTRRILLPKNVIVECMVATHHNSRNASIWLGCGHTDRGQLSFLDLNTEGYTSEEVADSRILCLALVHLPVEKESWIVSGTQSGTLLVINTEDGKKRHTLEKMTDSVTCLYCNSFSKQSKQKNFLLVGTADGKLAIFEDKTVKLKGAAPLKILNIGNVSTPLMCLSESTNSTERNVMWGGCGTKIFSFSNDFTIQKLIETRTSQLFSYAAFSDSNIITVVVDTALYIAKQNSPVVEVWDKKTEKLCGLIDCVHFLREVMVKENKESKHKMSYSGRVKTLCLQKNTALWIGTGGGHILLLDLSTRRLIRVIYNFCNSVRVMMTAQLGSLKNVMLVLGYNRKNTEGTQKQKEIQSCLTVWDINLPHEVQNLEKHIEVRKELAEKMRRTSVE

[3] = biological target: Mitogen-activated protein kinase 8 (Homo sapiens, UniProt P45983); assay: Inhibition of human wild type JNK1 at 1 uM by qPCR analysis relative to control
Cytochrome P450 2D6 = Cytochrome P450 2D6 (Homo sapiens, UniProt P10635)
Description: Inhibition of CYP2D6 in human liver microsomes assessed as inhibition of diclofenac metabolism by HPLC/MS analysis

Aurora kinase C = Aurora kinase C (Homo sapiens, UniProt Q9UQB9)
Description: Inhibition of wild type human Aurora kinase C kinase by high throughput ATP-[33P] radiolabeled assay

[4] = biological target: Dual specificity protein kinase CLK1 (Homo sapiens) (UniProt P49759); assay: Inhibition of human wild type CLK1 at 1 uM by qPCR analysis relative to control
[5] = biological target: T1, Leucine-rich repeat serine/threonine-protein kinase 2
Description: Inhibition of human wild type LRRK2 by qPCR analysis

[6] = biological target: Inhibitor of nuclear factor kappa-B kinase subunit alpha (Homo sapiens) (UniProt O15111); assay: Inhibition of human wild type IKKalpha at 1 uM by qPCR analysis relative to control
[7] = biological target: Tyrosine-protein kinase receptor UFO (Homo sapiens) (UniProt P30530); assay: Inhibition of human wild type AXL at 1 uM by qPCR analysis relative to control
[8] = biological target: T2, Mitogen-activated protein kinase 1 (Homo sapiens, UniProt P28482); assay: Inhibition of human wild type ERK2 at 1 uM by qPCR analysis
T2 sequence (P28482 whole entry): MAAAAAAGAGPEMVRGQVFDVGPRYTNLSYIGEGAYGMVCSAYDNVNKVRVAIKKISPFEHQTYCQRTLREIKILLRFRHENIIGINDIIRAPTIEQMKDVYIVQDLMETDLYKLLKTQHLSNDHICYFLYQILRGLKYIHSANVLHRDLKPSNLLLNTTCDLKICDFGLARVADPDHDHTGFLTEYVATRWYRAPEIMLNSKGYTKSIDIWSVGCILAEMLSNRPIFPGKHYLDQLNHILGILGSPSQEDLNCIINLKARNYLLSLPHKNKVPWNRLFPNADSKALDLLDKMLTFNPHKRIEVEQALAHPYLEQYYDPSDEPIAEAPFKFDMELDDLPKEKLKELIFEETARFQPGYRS

[9] = biological target: Proto-oncogene tyrosine-protein kinase Src (Homo sapiens, UniProt P12931)
Description: Inhibition of wild type human SRC by high throughput ATP-[33P] radiolabeled assay

[10] = biological target: Insulin-like growth factor 1 receptor (Homo sapiens, UniProt P08069)
Description: Inhibition of wild type human IGF1R by high throughput ATP-[33P] radiolabeled assay

[11] = biological target: Cyclin-dependent kinase 4 (Homo sapiens) (UniProt P11802); assay: Inhibition of human wild type CDK4 at 1 uM by qPCR analysis relative to control
[12] = biological target: Serine/threonine-protein kinase MARK1 (Homo sapiens) (UniProt Q9P0L2); assay: Inhibition of human wild type MARK1 at 1 uM by qPCR analysis relative to control
[13] = biological target: SRSF protein kinase 2 (Homo sapiens) (UniProt P78362); assay: Inhibition of human wild type SRPK2 at 1 uM by qPCR analysis relative to control
[14] = biological target: T3, Rho-associated protein kinase 1 (Homo sapiens, UniProt Q13464)
Description: Inhibition of wild type human ROCK1 by high throughput ATP-[33P] radiolabeled assay

[15] = biological target: Mitogen-activated protein kinase 3 (Homo sapiens) (UniProt P27361); assay: Inhibition of human wild type ERK1 at 1 uM by qPCR analysis
Mitogen-activated protein kinase 3 (Homo sapiens), sequence (P27361 whole entry): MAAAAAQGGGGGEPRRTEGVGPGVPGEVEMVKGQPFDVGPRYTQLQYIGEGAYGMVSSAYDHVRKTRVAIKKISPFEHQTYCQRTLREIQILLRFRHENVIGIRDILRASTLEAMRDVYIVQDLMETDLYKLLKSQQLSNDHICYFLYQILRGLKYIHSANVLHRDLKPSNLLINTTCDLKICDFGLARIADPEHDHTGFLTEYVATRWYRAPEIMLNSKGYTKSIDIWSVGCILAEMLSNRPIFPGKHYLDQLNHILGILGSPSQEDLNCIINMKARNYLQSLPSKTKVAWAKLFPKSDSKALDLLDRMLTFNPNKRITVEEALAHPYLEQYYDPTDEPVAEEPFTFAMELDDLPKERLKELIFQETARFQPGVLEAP

[16] = biological target: Ribosomal protein S6 kinase alpha-1 (Homo sapiens) (UniProt Q15418); assay: Inhibition of human wild type RSK1 at 1 uM by qPCR analysis
[17] = biological target: T3, Rho-associated protein kinase 1; conditions: 1 uM
Target sequence in this assay (Q13464 2-1354 limits assumed): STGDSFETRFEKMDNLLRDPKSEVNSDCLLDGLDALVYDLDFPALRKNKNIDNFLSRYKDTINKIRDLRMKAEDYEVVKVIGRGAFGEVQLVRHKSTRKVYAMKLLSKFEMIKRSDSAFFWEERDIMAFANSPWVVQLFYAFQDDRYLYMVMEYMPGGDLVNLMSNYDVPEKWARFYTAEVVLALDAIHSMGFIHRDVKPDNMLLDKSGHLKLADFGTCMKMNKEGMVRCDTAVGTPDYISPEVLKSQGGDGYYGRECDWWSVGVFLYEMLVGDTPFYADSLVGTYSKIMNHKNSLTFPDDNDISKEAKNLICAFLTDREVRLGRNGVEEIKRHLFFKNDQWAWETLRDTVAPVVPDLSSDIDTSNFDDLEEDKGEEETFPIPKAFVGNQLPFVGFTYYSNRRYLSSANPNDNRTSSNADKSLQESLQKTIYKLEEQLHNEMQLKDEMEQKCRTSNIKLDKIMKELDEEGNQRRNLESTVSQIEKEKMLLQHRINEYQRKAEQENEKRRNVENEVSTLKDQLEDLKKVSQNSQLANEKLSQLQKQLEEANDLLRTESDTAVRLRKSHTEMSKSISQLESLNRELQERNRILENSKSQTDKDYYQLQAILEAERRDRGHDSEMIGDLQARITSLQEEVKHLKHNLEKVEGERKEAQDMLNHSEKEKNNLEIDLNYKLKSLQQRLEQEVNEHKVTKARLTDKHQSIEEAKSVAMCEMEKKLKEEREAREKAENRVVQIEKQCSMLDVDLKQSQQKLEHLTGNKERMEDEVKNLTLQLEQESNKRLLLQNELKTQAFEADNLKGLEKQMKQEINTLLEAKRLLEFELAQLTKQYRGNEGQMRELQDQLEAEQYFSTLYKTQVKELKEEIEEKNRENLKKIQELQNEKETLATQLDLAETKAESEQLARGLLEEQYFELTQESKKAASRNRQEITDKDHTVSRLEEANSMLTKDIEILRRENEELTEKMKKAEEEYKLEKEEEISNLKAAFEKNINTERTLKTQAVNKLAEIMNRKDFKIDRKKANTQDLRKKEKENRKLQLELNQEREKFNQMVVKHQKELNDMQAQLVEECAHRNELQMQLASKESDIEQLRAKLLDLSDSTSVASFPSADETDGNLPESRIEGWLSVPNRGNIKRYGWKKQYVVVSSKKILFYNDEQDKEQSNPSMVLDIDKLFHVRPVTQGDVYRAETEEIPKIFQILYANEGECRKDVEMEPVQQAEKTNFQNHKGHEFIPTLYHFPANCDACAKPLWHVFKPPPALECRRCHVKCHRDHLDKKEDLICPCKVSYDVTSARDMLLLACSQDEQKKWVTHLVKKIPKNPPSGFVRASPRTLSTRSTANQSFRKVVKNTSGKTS
Description: Inhibition of human wild type ROCK1 at 1 uM by qPCR analysis relative to control

[18] = biological target: Receptor-type tyrosine-protein kinase FLT3 (Homo sapiens) (UniProt P36888); assay: Inhibition of human wild type FLT3 at 1 uM by qPCR analysis relative to control
[19] = biological target: Mitogen-activated protein kinase kinase kinase 9 (Homo sapiens, UniProt P80192)
Description: Inhibition of MLK1 (unknown origin)

[20] = biological target: Protein delta homolog 1 (Homo sapiens) (UniProt P80370); assay: Inhibition of human wild type DLK at 1 uM by qPCR analysis relative to control
Protein delta homolog 1 (Homo sapiens), sequence (P80370 whole entry): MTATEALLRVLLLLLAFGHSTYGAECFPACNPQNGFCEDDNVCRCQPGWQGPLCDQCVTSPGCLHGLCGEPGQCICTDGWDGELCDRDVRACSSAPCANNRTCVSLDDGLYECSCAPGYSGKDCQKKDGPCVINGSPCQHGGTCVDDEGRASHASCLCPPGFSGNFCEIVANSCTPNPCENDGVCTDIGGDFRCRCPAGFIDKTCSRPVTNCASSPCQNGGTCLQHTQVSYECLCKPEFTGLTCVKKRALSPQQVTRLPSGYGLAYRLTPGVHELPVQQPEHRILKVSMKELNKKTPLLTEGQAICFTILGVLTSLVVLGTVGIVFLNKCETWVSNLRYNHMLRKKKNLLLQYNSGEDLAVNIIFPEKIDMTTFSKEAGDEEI

[21] = biological target: Rho-associated protein kinase 2 (Homo sapiens, UniProt O75116)
Description: Inhibition of wild type human ROCK2 by high throughput ATP-[33P] radiolabeled assay

[22] = biological target: Glycogen synthase kinase-3 beta (Homo sapiens, UniProt P49841)
Description: Inhibition of wild type human GSK3B by high throughput ATP-[33P] radiolabeled assay

[23] = biological target: Dual specificity protein kinase CLK2 (Homo sapiens) (UniProt P49760); assay: Inhibition of human wild type CLK2 at 1 uM by qPCR analysis relative to control
Aurora kinase B = Aurora kinase B (Homo sapiens, UniProt Q96GD4)
Description: Inhibition of wild type human Aurora kinase B by high throughput ATP-[33P] radiolabeled assay

[24] = biological target: Cyclin-dependent kinase 1 (Homo sapiens, UniProt P06493)
Description: Inhibition of wild type human CDK1 by high throughput ATP-[33P] radiolabeled assay

[25] = biological target: T2, Mitogen-activated protein kinase 1
Description: Inhibition of wild type human ERK2 by high throughput ATP-[33P] radiolabeled assay

[26] = biological target: Non-receptor tyrosine-protein kinase TYK2 (Homo sapiens) (UniProt P29597); assay: Inhibition of human wild type TYK2 at 1 uM by qPCR analysis relative to control
[27] = biological target: TRAF2 and NCK-interacting protein kinase (Homo sapiens) (UniProt Q9UKE5); assay: Binding affinity to human wild type TNIK at 1 uM by qPCR analysis
[28] = biological target: Mast/stem cell growth factor receptor Kit (Homo sapiens) (UniProt P10721); assay: Inhibition of human wild type KIT at 1 uM by qPCR analysis relative to control

Structure (SMILES): CN1CCN(Cc2ccc(-c3cnc4[nH]cc(-c5ccc6[nH]ccc6c5)c4c3)cc2)CC1
- pIC50 [1]: 7.85
- inhibition [2]: 92%
- inhibition [3]: 99%
- pIC50 (Cytochrome P450 2D6): < 4.52
- pIC50 (Aurora kinase C): 6.54
- inhibition [4]: > 90%
- pIC50 [5]: 7.96
- inhibition [6]: > 90%
- inhibition [7]: > 90%
- inhibition [8]: inactive
- pIC50 [9]: 5.36
- pIC50 [10]: 6.51
- inhibition [11]: > 90%
- inhibition [12]: 92%
- inhibition [13]: > 90%
- pIC50 [14]: 5.99
- inhibition [15]: inactive
- inhibition [16]: inactive
- inhibition [17]: > 90%
- inhibition [18]: > 90%
- pIC50 [19]: 7.72
- inhibition [20]: 88%
- pIC50 [21]: 6.95
- pIC50 [22]: < 5.00
- inhibition [23]: > 90%
- pIC50 (Aurora kinase B): 6.91
- pIC50 [24]: 5.95
- pIC50 [25]: 5.20
- inhibition [26]: > 90%
- inhibition [27]: Active
- inhibition [28]: > 90%
